According to patent publication US20160000766A1, “HDAC INHIBITORS TO TREAT CHARCOT-MARIE-TOOTH DISEASE” (VIB VZW, priority 2010, published 2016):
“Also recorded” adds a separate entry of the source.

What was measured:
[1] = test system: DRG neurons isolated from symptomatic HSPB1^S135F mice; assay: Axonal transport of mitochondria in cultured DRG neurons treated in vitro with HDAC inhibitors; format: cell-based, mouse; settings: for number of moving mitochondria / total numbers of mitochondria / effectiveness on total and moving mitochondria relative to TSA: 12 hours treatment; for number of moving mitochondria / total numbers of mitochondria: TSA 0.4 μM, tubacin 2 μM, tubastatin A 1 μM, vs DMSO; for effectiveness on total and moving mitochondria relative to TSA: FIG. 8, Panels a and b
Experimental: (§1) Panels a and b: Axonal transport of mitochondria was assessed in DRG neurons isolated from symptomatic (eight-month-old) HSPB1^S135F mice after 12 hours incubation with various concentrations (0, 0.25, 0.50 or 1.00 μM) of Tubastatin A. Panel a: Quantification of the total number of mitochondria at various concentrations of Tubastatin A. One-way ANOVA. P>0.05. Panel b: Quantification of the number of moving mitochondria at different concentrations of Tubastatin A. One-way ANOVA. * P<0.05; ** P<0.001; P<0.0001. Panel c: Quantification of the integrated density of the acetylated tubulin signal along neurites at various concentrations of Tubastatin A. n=25 to 30 cells/condition. One-way ANOVA. * P<0.05.
(§2) FIG. 8: HDAC6 inhibition rescues axonal transport defects and restores the CMT2 phenotype. Panels a and b: Axonal transport of mitochondria measured in DRG neurons isolated from ten-month-old HSPB1^S135F-expressing mice after 12 hours of treatment with TSA (0.4 μM), tubacin (2 μM), tubastatin A (1 μM) or an equivalent amount of DMSO. Total number of (Panel a) and number of moving (Panel b) mitochondria (per 200 seconds and per 100 μm) were quantified. n=20 to 30 cells isolated from three different mice for each condition. *P<0.05; **P<0.01; ***P<0.0001. Panels c and d: Western blots of sciatic nerve and spinal cord extracts from symptomatic eight-month-old HSPB1^S135F-expressing mice treated daily for three weeks with TSA (10 mg per kg body weight; Panel c) or tubastatin A (25 mg per kg body weight; Panel d) probed against acetylated tubulin. Equal loading was confirmed with α-tubulin staining. n=3. Panels e and f: Quantifications of optical density (OD) of acetylated tubulin on Western blots of sciatic nerve (Panel e) and spinal cord (Panel f) extracts of symptomatic HSPB1^S135F-expressing mice treated with TSA or tubastatin A. n=3. Panel g: Motor performance on an accelerating rotarod of HSPB1^S135F-expressing mice treated for three weeks with TSA or tubastatin A. Panels h and i: Effect of the TSA or tubastatin A treatments of HSPB1^S135F-expressing mice on the amplitudes of CMAPs (Panel h) or SNAPs (Panel i). n=3 to 6 mice per group. […]; **P<0.001; ***P<0.0001. One-way ANOVA was used to analyze the data in Panels a, b, and e through i. Data are presented as means±s.e.m.
(§3) It has previously been shown that the intracellular distribution of specific cargoes, such as mutant HSPB1 itself, but also neurofilament and p150, was disturbed in cortical neurons transfected with HSPB1^P182L (ref. 12). In order to study effects of mutant HSPB1 on axonal transport, dorsal root ganglion (DRG) neurons from adult transgenic mice were isolated and analyzed mitochondrial transport in these neurons after two days in culture. Mitochondrial movement was visualized by loading DRG neurons with a selective mitochondrial marker (MITOTRAcKER®) and by live video imaging (FIG. 6, Panel a). Kymographs resulting from time compression of video images were used to quantify the total number of mitochondria present in the neurites and to discriminate antero- and retrogradely moving from stationary mitochondria (FIG. 6, Panel a, right-side panels).
Treatment of DRG neurons isolated from symptomatic HSPB1^[…]-expressing mice with TSA, tubacin or tubastatin A increased total numbers of mitochondria FIG. 8, Panel a) and restored the number of moving mitochondria (FIG. 8, Panel b).

acetylated α-tubulin = assay: Western blots of acetylated α-tubulin in sciatic nerve and spinal cord of treated mice; format: in vivo, mouse; settings: daily for 21 days, TSA 10 mg per kg, tubastatin A 25 mg per kg; for acetylated α-tubulin amounts in peripheral nerves: sciatic nerve
Experimental: as §2
Next, symptomatic HSPB1^S135F-expressing mice were treated for 21 days with either a nonspecific or a specific HDAC6 inhibitor.

[2] = test system: symptomatic HSPB1^S135F-expressing mice; assay: Motor performance on accelerating rotarod of treated HSPB1^S135F-expressing mice; format: in vivo, mouse; settings: for motor performance (accelerating rotarod): treated for three weeks, TSA 10 mg per kg, tubastatin A 25 mg per kg; for CMT2 phenotype at the behavioral and electrophysiological levels: treatment of mutant HSPB1 mice (Example 9)
Experimental: as §2
Next, general motor performance was assessed using an accelerating rotarod. All mice could stay on the rotarod (300 seconds) until the age of six months. From that age on, both mutant HSPB1 lines started to fail on the rotarod test and a progressive reduction in performance was observed over time (P<0.0001; FIG. 1, Panel c).
(§4) It was also observed that the loss of acetylcholine-receptor clusters at the end plates in gastrocnemius muscle was restored (FIG. 9, Panel a) and that the level of denervation of the remaining neuromuscular junctions was decreased (FIG. 9, Panel b). These observations indicate that increasing acetylated α-tubulin abundance in peripheral nerves leads to re-innervation of muscles.

[3] = test system: symptomatic HSPB1^S135F-expressing mice; assay: Nerve conduction studies (CMAP and SNAP amplitudes) in treated mice; format: in vivo, mouse; settings: treated for three weeks; TSA 10 mg per kg, tubastatin A 25 mg per kg
Experimental: as §2
Nerve conduction studies are routinely done on CMT patients to discriminate demyelinating (type 1) from axonal (type 2) forms, as well as to assess whether patients show either a mixed sensorimotor (CMT2) or a pure motor neuropathy (distal HMN). Therefore, nerve conduction studies were performed on transgenic HSPB1 mice using sub-dermal electrodes, either at the level of the gastrocnemius muscle to measure compound muscle action potentials (CMAPs), or in the distal end of the tail to record sensory nerve action potentials (SNAPs). […] The decrease in CMAP amplitudes in function of age was more pronounced in HSPB1^P182L compared to HSPB1^S135F mice as assessed by the slopes (slopeS135F=−4.66±0.32; slopeP182L=−6.23±0.93; P=0.004; FIG. 4, Panel c). CMAP latencies were unaffected, confirming the axonal nature of the motor neuropathy in both mutant HSPB1 lines (FIG. 4, Panel d).
It was also observed that the loss of acetylcholine-receptor clusters at the end plates in gastrocnemius muscle was restored (FIG. 9, Panel a) and that the level of denervation of the remaining neuromuscular junctions was decreased (FIG. 9, Panel b). […]

[4] = test system: symptomatic HSPB1^S135F-expressing mice; assay: Innervation level of the gastrocnemius muscle (neuromuscular junctions) in treated mice; format: in vivo, mouse; settings: treated for three weeks; eight-month-old mice
Experimental: (§5) FIG. 9: TSA or tubastatin A treatment leads to muscle reinnervation and rescues axonal transport defects. Panels a and b: Effect of vehicle (DMSO), TSA or tubastatin A treatment on the innervation level of the gastrocnemius muscle in symptomatic, eight-month-old HSPB1^S135F-expressing mice. The number of visible neuromuscular junctions (NMJs) per axon in each field of view (Panel a) and the relative quantity of denervated neuromuscular junctions (Panel b) were determined after staining gastrocnemius muscle with antibodies against α-bungarotoxin and neurofilament heavy chain. n=2 or 3 mice per condition. ***P<0.0001. Panels c and d: Axonal transport of mitochondria measured in cultured DRG neurons isolated from symptomatic HSPB1^S135F-expressing mice after three weeks of treatment with TSA or tubastatin A. Total number (Panel c) and number of moving mitochondria (Panel d) were quantified (per 200 seconds and 100 μm). n=20 to 25 cells isolated from three different mice in each condition. *P<0.05; ***P<0.0001. One-way ANOVA was used to analyze the data. Tukey's HSD test was used for post hoc analysis in Panels a through d. Data are presented as means±s.e.m.
as §4

[5] = test system: DRG neurons isolated from symptomatic HSPB1^S135F-expressing mice; assay: Ex vivo axonal transport of mitochondria in DRG neurons isolated from treated mice; parameters: species or system mouse; settings: after three weeks of in vivo treatment
Experimental: as §5, §3
Finally, we measured ex vivo axonal transport in DRG neurons isolated from treated mice.

acetylated tubulin = assay: Acetylated tubulin signal along neurites of cultured DRG neurons; format: cell-based, mouse; settings: 12 hours incubation; 0, 0.25, 0.50 or 1.00 μM
Experimental: as §1

Structure (SMILES) | number of moving mitochondria [1] | total numbers of mitochondria [1] | acetylated α-tubulin amounts in spinal cord (acetylated α-tubulin) | overall α-tubulin abundance (acetylated α-tubulin) | acetylated α-tubulin amounts in peripheral nerves (acetylated α-tubulin) | motor performance (accelerating rotarod) [2] | CMT2 phenotype at the behavioral and electrophysiological levels [2] | CMAP amplitudes [3] | SNAP amplitudes [3] | level of denervation of the remaining neuromuscular junctions [4] | loss of acetylcholine-receptor clusters at the end plates in gastrocnemius muscle [4] | number of moving mitochondria (ex vivo) [5] | effectiveness on total and moving mitochondria relative to TSA [1] | axonal transport of mitochondria, dose dependence ([1]; 12 hours incubation, 0, 0.25, 0.50 or 1.00 μM, eight-month-old HSPB1^S135F mice) | acetyl-tubulin levels in vitro (integrated density along neurites) (acetylated tubulin) | mitochondrial motility, overall rescue and comparison with TSA (ex vivo) [5] | total number of mitochondria (ex vivo) [5]
CC(/C=C/C(=O)NO)=C\[C@@H](C)C(=O)c1ccc(N(C)C)cc1 [TSA, Trichostatin A] | restored | increased | also increased | did not affect | significant increase | significantly increased | partially restored | increased | increased | decreased | restored | increased significantly | – | – | – | – | –
O=C(CCCCCCC(=O)Nc1ccc([C@H]2O[C@@H](CSc3nc(-c4ccccc4)c(-c4ccccc4)o3)C[C@@H](c3ccc(CO)cc3)O2)cc1)NO [tubacin] | restored | increased | – | – | – | – | – | – | – | – | – | – | more effective compared to TSA | – | – | – | –
CN1CCc2c(c3ccccc3n2Cc2ccc(C(=O)NO)cc2)C1 [tubastatin A] | restored | increased | – | did not affect | significant increase | significantly increased | partially restored | increased | increased | decreased | restored | increased significantly | more effective compared to TSA | dose-dependently rescued | increased | more effective than TSA; also recorded: complete rescue | increased
